The structures appear in SMILES notation. Values after ≈ are worked out from the molar mass of the structure shown. Counter-ions that a name gives are not always drawn. Like-named read-outs stand apart in the source and are kept apart here.

As usually defined, the MIC50 is the lowest concentration that inhibits either 50% of growth or 50% of the strains tested, depending on the study.

Holding throughout (assay): MIC determination by AFST-EUCAST standard methodology
For experiment [1], the system named is C. parapsilosis ATCC 34136. Type of experiment: cell-based. The conditions noted are these: visually and spectrophotometrically, read-out: Antifungal activity, expressed as MIC50. As for the experimental part:
(§1) Determination of MICs by AFST-EUCAST Standard Methodology
(§2) Assay medium. The assay medium was RPMI […] without NaHCO3 and with L-glutamine (Sigma Aldrich, Italy), buffered at pH 7.0 with 0.165 M morpholinepropanesulphonic acid (Sigma Aldrich, Italy) and supplemented with 2% (w/v) glucose. The medium, prepared as double-strength solution, was sterilized by filtration and diluted 1:2 (v/v) with the fungal inoculum prepared in sterile distilled water.
(§3) The yeast isolates were grown on Sabouraud dextrose agar (Oxoid, Madrid, Spain) for 48 h at 37° C. before testing. Suspensions were prepared by combining five distinct colonies of each culture of >1 mm diameter. A spectrophotometric procedure for inoculum preparation was used. The final inoculum suspension, prepared in sterile distilled water, contained between 0.5·10^5 and 2.5·10^5 cfu/mL.
(§4) Stock solutions of test compounds were prepared in 100% dimethyl sulfoxide. Stock solutions were prepared as 100× concentration relative to the highest concentration in the antifungal activity test, and frozen at −70° C. until used.
(§5) Sterile plastic micro titration plates containing flat-bottomed wells were used. The plates contained serial dilution of the antifungal agents with a volume of assay medium of 100 μL/well. Two drug-free medium wells were used as sterility and growth controls. The trays were inoculated with 100 μL/well of the final inoculum, with the exception of sterility control wells. The range of concentrations tested for each drug was 1.25-80 μM. The microtitration plates were incubated at 37° C. for 24 h. The minimal inhibitory concentrations (MICs) were determined at 24 h both visually and spectrophotometrically.
(§6) By visual endpoint determination, MICs were determined according to a S-1-R scale, with S (susceptible) indicating an optical clear culture, I (intermediate susceptibility) indicating a slightly hazy culture, and R (resistant) indicating no reduction in turbidity. The MIC50 was defined as the lowest concentration of a drug which correspond to a S culture.
(§7) Microtitration plates were stirred using a microtitration plate shaker before reading to ensure uniform turbidity. MICs were obtained by measuring the absorbance at 450 nm with a microtitration plate reader. The value of the blank was subtracted from reading of the rest of the wells. Two endpoints were defined for each antifungal agent tested, with MIC80 indicating the lowest drug concentration resulting in a reduction of growth of 80% or more (determined spectrophotometrically) compared with the growth of the control, and MIC50 indicating the lowest drug concentration resulting in a reduction in growth of 50% (determined spectrophotometrically) compared with the growth of the control. The MIC50 was also defined as the spectrophotometric endpoint.

Experiment [2] concerns C. parapsilosis 81E. Type of experiment: cell-based. The following applies: 24 h, visually and spectrophotometrically, read-out: Antifungal activity, expressed as MIC50. As for the experimental part:
as §1, §2, §3, §4, §5, §6, §7

The subject of experiment [3] is C. parapsilosis 64E. Type of experiment: cell-based. The conditions noted are these: 24 h, visually and spectrophotometrically, read-out: Antifungal activity, expressed as MIC50. As for the experimental part:
as §1, §2, §3, §4, §5, §6, §7

Experiment [4] concerns C. glabrata 70E. Type of experiment: cell-based. The conditions noted are these: C. glabrata 70E, 24 h, visually and spectrophotometrically, read-out: Antifungal activity, expressed as MIC50. As for the experimental part:
as §1, §2, §3, §4, §5, §6, §7

The test system of experiment [5] is C. krusei ATCC 14243. Type of experiment: cell-based. The following applies: visually and spectrophotometrically, read-out: Antifungal activity, expressed as MIC50. As for the experimental part: as §1, §2, §3, §4, §5, §6, §7
Experiment [6] concerns C. tropicalis 86E. Type of experiment: cell-based. The following applies: 24 h, visually and spectrophotometrically, read-out: Antifungal activity, expressed as MIC50. As for the experimental part: as §1, §2, §3, §4, §5, §6, §7
The subject of experiment [7] is C. krusei 193T. Type of experiment: cell-based. The conditions noted are these: 24 h, visually and spectrophotometrically, read-out: Antifungal activity, expressed as MIC50. As for the experimental part:
as §1, §2, §3, §4, §5, §6, §7

In experiment [8] the test system is C. albicans 15T. Type of experiment: cell-based, Candida albicans. The conditions noted are these: 24 h, visually and spectrophotometrically, read-out: Antifungal activity, expressed as MIC50. As for the experimental part:
as §1, §2, §3, §4, §5, §6, §7

The test system of experiment [9] is C. albicans 4T. Type of experiment: cell-based, Candida albicans. The following applies: 24 h, visually and spectrophotometrically; for MIC50: read-out: Antifungal activity, expressed as MIC50. As for the experimental part: as §1, §2, §3, §4, §5, §6, §7
For experiment [10], the system named is C. albicans 53T. Type of experiment: cell-based, Candida albicans. The conditions noted are these: 24 h, visually and spectrophotometrically, read-out: Antifungal activity, expressed as MIC50. As for the experimental part: as §1, §2, §3, §4, §5, §6, §7
Experiment [11] relates to C. albicans ATCC 60193. Type of experiment: cell-based, Candida albicans. The following applies: visually and spectrophotometrically, read-out: Antifungal activity, expressed as MIC50. As for the experimental part:
as §1, §2, §3, §4, §5, §6, §7

Setting [12] is: Lodderomyces parapsilosis, ATCC34136, 24 h.
Where [13] appears, read: Pichia kudriavzevii, ATCC14243, 24 h.
Where [14] appears, read: Candida albicans, ATCC60193, 24 h.

Take `C=C(C)CNC(=N)NCCCCCCCCN1CCCCCCCCNC(=N)NC1=O` [Compound 13e]: the MIC50 in experiment [1] (24 h) is recorded as more than 80 µM; in experiment [2], more than 80 µM; in [3] it was more than 80 µM; in [4], 80 µM (≈ 34.9 µg/mL); in [5] (24 h), 40 µM (≈ 17.4 µg/mL); in experiment [6], 40 µM (≈ 17.4 µg/mL). The MIC50 came to 80 µM (≈ 34.9 µg/mL) in [7]; 20 µM (≈ 8.71 µg/mL) in experiment [8]; 40 µM (≈ 17.4 µg/mL) in [9]; 40 µM (≈ 17.4 µg/mL) in experiment [10]; 20 µM (≈ 8.71 µg/mL) in experiment [11] (24 h).

Turning to `CC(C)=CCNC(=N)NCCCCCCCCN1CCCCCCCCNC(=N)NC1=O` [Compound 13f], the MIC50 in experiment [1] (24 h) is listed as more than 80 µM; in [2], 40 µM (≈ 18 µg/mL); in [3], more than 80 µM; in experiment [4], 80 µM (≈ 36 µg/mL); in experiment [5] (24 h), 10 µM (≈ 4.5 µg/mL); in experiment [6] it was 20 µM (≈ 8.99 µg/mL). Further, the MIC50 was 20 µM (≈ 8.99 µg/mL) in experiment [7]; 20 µM (≈ 8.99 µg/mL) in experiment [8]; 20 µM (≈ 8.99 µg/mL) in experiment [9]; 20 µM (≈ 8.99 µg/mL) in experiment [10]; 40 µM (≈ 18 µg/mL) in [11] (24 h).

As for `N=C(NCCCCCCCCN1CCCCCCCCNC(=N)NC1=O)NCc1ccccc1` [Compound 15a, 1-[benzyl]-3-[8-(4-imino-2-oxo-1,3,5-triazacyclotridec-1-yl)octyl]guanidine tri trifluoroacetate], the MIC50 in [1] (setting [12]) stood at 80 µM; in experiment [2] (Lodderomyces parapsilosis), 20 µM; in experiment [3] (Lodderomyces parapsilosis) it was 20 µM; in experiment [4] (Nakaseomyces glabratus), 40 µM; in [5] (setting [13]), 20 µM; in [6] (Candida tropicalis) it was 2.5 µM. For the same compound, the MIC50 worked out at 10 µM in experiment [7] (Pichia kudriavzevii); 5 µM in [8] (Candida albicans); 2.5 µM in experiment [9] (Candida albicans); 2.5 µM in [10] (Candida albicans); 2.5 µM in experiment [11] (setting [14]).

With `C#CCNC(=N)NCCCCCCCCN1CCCCCCCCNC(=N)NC1=O.O=C(O)C(F)(F)F.O=C(O)C(F)(F)F.O=C(O)C(F)(F)F` [Compound 15b, 1-[propargyl]-3-[8-(4-imino-2-oxo-1,3,5-triazacyclotridec-1-yl)octyl]guanidine tri trifluoroacetate], the MIC50 in experiment [1] (setting [12]) was 40 µM; in experiment [2] (Lodderomyces parapsilosis), 80 µM; in [3] (Lodderomyces parapsilosis), 40 µM; in experiment [4] (Nakaseomyces glabratus), 80 µM; in [5] (setting [13]), 80 µM; in experiment [6] (Candida tropicalis) it was 5 µM. Further, the MIC50 was found to be 40 µM in experiment [7] (Pichia kudriavzevii); 2.5 µM in [8] (Candida albicans); 80 µM in experiment [9] (Candida albicans); 5 µM in experiment [10] (Candida albicans); 2.5 µM in experiment [11] (setting [14]). Also, the “Antifungal activity, expressed as MIC50” value in [9] is listed as “resistant”.

In the case of `C=C(C)CNC(=N)NCCCCCCCCN1CCCCCCCCNC(=N)NC1=O` [Compound 15d, 1[β-methylallyl]-3-[8-(4-imino-2-oxo-1,3,5-triazacyclotridec-1-yl)octyl]guanidine tri trifluoroacetate], the MIC50 was more than 80 µM in [1] (setting [12]); more than 80 µM in experiment [2] (Lodderomyces parapsilosis); more than 80 µM in experiment [3] (Lodderomyces parapsilosis); 80 µM in experiment [4] (Nakaseomyces glabratus); 40 µM in [5] (setting [13]); 40 µM in [6] (Candida tropicalis). The MIC50 in experiment [7] (Pichia kudriavzevii) worked out at 80 µM; in experiment [8] (Candida albicans), 20 µM; in experiment [9] (Candida albicans) it was 40 µM; in experiment [10] (Candida albicans), 40 µM; in [11] (setting [14]), 20 µM.

Consider `OC(Cn1cncn1)(Cn1cncn1)c1ccc(F)cc1F` [F, fluconazole, reference compound], for which the MIC50 in experiment [1] (setting [12]) was 6.5 µM (≈ 1.99 µg/mL); in experiment [2] (Lodderomyces parapsilosis), 13 µM (≈ 3.98 µg/mL); in experiment [3] (Lodderomyces parapsilosis) it was 32 µM (≈ 9.8 µg/mL); in experiment [4] (Nakaseomyces glabratus), 209 µM (≈ 64 µg/mL); in experiment [5] (setting [13]), 209 µM (≈ 64 µg/mL); in [6] (Candida tropicalis), 52 µM (≈ 15.9 µg/mL). Also, the MIC50 in [7] (Pichia kudriavzevii) was determined as 418 µM (≈ 128 µg/mL); in [8] (Candida albicans) it was 209 µM (≈ 64 µg/mL); in [9] (Candida albicans), 209 µM (≈ 64 µg/mL); in [10] (Candida albicans), 418 µM (≈ 128 µg/mL); in experiment [11] (setting [14]), 0.8 µM (≈ 0.245 µg/mL).

The values are drawn from patent US8685953B2, “Linear and cyclic guanidine derivatives, method of preparation and uses thereof” (Universita Degli Studi Di Siena, priority 2008, dated 2014).
